Article PMC3524758, “Development and evaluation of a novel radioiodinated vesamicol analog as a sigma receptor imaging agent” (EJNMMI Research, 2012)
“And” between values parts separate entries of the source, which are not always exact repeats. Equal values may be shown once. Marks after values point to notes of the source that are not given here.

Tests used:
[1] = Partition coefficient (1-octanol / 0.02-M phosphate buffer); format: physicochemical
Description: The partition coefficient of (+)-^125I]IV-OH was measured as described previously.

[2] = system: DU-145 prostate cancer cell lines; test: Cellular uptake and washout experiments in vitro; format: cell-based; details: DU-145 cells
Description: Radiotracer uptake studies were performed in monolayer cultures of DU-145 prostate cancer cell lines, which were obtained from ATCC (Manassas, VA, USA). Cells were grown in cell culture dishes in RPMI 1640 medium with phenol red, 10% heat-inactivated fetal bovine serum (FBS), 100-μg/mL glutamine, 100-units/mL penicillin, and 100-μg/mL streptomycin at 37°C in a humidified atmosphere of 95% air and 5% carbon dioxide. Cells were plated on 6-well tissue culture plates (4 × 10^5 cells/well) for 24 h before the study and incubated at 37°C in the culture medium without FBS containing (+)-^125I]IV-OH or (+)-^125I]pIV (3.7 kBq/well), which was prepared by a method of a previous study for different time intervals (15, 30, 60, and 120 min). For the washout experiment, tumor cells exposed to a medium containing (+)-^125I]IV-OH or (+)-^125I]pIV for 60 min were washed with phosphate buffered saline (PBS) and incubated in fresh (nonradioactive) medium without FBS at 37°C for 15, 30, and 60 min. […] After incubation, cells were washed twice with ice-cold PBS and resolved by adding 0.5 mL of 1-M NaOH. The solutions were then collected and the radioactivity was determined with an auto well gamma counter (ARC-380; Aloka) and corrected for background radiation. The radioactivity of each sample was normalized for the protein level, which was determined using a Protein Assay Bicinchoninate Kit (Nacalai Tesque).

[3] = Biodistribution in DU-145 tumor-bearing mice; format: in vivo; details: i.v., mean (SD)
Description: (+)-^131I]pIV was prepared using a method described previously. To produce tumors, approximately 5 × 10^6 of the prepared DU-145 cells was injected subcutaneously into the right dorsum of 4-week-old male BALB/c nude mice (15 to 19 g, Japan SLC, Inc.). Biodistribution experiments were performed at approximately 14- to 21-day post-inoculation, i.e., when tumors reached a palpable size. Groups of four mice were intravenously administered with 100 μL of a mixed solution of (+)-^125I]IV-OH (37 kBq) and (+)-^131I]pIV (37 kBq). At 10-min, 1-, 3-, and 24-h post-injections, the mice were killed. Tissues of interest were removed and weighed, and radioactivity counts were determined with an auto well gamma counter and corrected for background radiation. A window from 16 to 71 keV was used for measuring ^125I and one from 300 to 433 keV for ^131I. The crossover of ^125I activity into the ^131I channel was negligible. Correlation factors to eliminate any crossover of ^131I activity into ^125I were determined by measuring the ^131I standard in both windows.

[4] = Metabolite analysis in blood, tumor and other tissues (TLC); format: in vivo, mice; details: i.v., mean (SD) three samples
Description: For metabolite analysis, the above-mentioned DU-145 tumor-bearing mice were intravenously administered with 100 μL of (+)-[^125I]IV-OH (3.7 MBq). At 10-min and 1-h post-injections, the mice were killed. Blood was collected and tissues of interest were removed. The blood was centrifuged at 1,000×g for 10 min at 4°C. After the plasma was collected, an equivalent volume of acetonitrile/water mixture (1:1) was added to the plasma. The mixture was centrifuged at 1,000×g for 10 min at 4°C. The tissues of interest (0.2 to 0.5 g) were homogenized in 1 mL of acetonitrile-water mixture (1:1). Each homogenized sample was centrifuged at 1,000×g for 10 min at 4°C. The supernatants were analyzed by TLC with a chloroform/methanol mixture (5:1) as a developing solvent. TLC plates were exposed to phosphor imaging plates (BAS IP SR 2025 E, Fujifilm, Tokyo, Japan) for 48 h. The exposed imaging plates were evaluated using an imaging scanner (BAS 5000 Bio-Imaging Analyzer, Fujifilm).

Oc1ccc(C2CCN(C3CCCCC3O)CC2)cc1[125I] (single isomer, unassigned; (+)) [(+)-[^125I]IV-OH]
log P [1]: 1.13 ± 0.01
time at which uptake was saturated [2]: 30 min
accumulation in the presence of haloperidol ([2]; haloperidol 10 μM in culture medium): remarkably lessened
intracellular radioactivity released into the supernatant ([2]; within 60 min after medium replacement, specific uptake): Approximately 71%
Biodistribution of radioactivity, Blood ([3]; 10 min post-injection): 1.28 (0.13)* percent injected dose per gram tissue
Biodistribution of radioactivity, Blood ([3]; 1 h post-injection): 1.04 (0.10)* percent injected dose per gram tissue
Biodistribution of radioactivity, Blood ([3]; 3 h post-injection): 0.43 (0.09)** percent injected dose per gram tissue
Biodistribution of radioactivity, Blood ([3]; 24 h post-injection): 0.00 (0.00)* percent injected dose per gram tissue
Biodistribution of radioactivity, Brain ([3]; 10 min post-injection): 5.14 (0.50)* percent injected dose per gram tissue
Biodistribution of radioactivity, Brain ([3]; 1 h post-injection): 1.04 (0.08)* percent injected dose per gram tissue
Biodistribution of radioactivity, Brain ([3]; 3 h post-injection): 0.22 (0.02)* percent injected dose per gram tissue
Biodistribution of radioactivity, Brain ([3]; 24 h post-injection): 0.00 (0.00)* percent injected dose per gram tissue
Biodistribution of radioactivity, Heart ([3]; 10 min post-injection): 3.57 (0.40)* percent injected dose per gram tissue
Biodistribution of radioactivity, Heart ([3]; 1 h post-injection): 0.78 (0.05)* percent injected dose per gram tissue
Biodistribution of radioactivity, Heart ([3]; 3 h post-injection): 0.27(0.00)** percent injected dose per gram tissue
Biodistribution of radioactivity, Heart ([3]; 24 h post-injection): 0.01 (0.01)* percent injected dose per gram tissue
Biodistribution of radioactivity, Intestine ([3]; 10 min post-injection): 5.26 (0.61)* percent injected dose per gram tissue
Biodistribution of radioactivity, Intestine ([3]; 1 h post-injection): 7.96 (0.72)* percent injected dose per gram tissue
Biodistribution of radioactivity, Intestine ([3]; 3 h post-injection): 4.84 (0.95) percent injected dose per gram tissue
Biodistribution of radioactivity, Intestine ([3]; 24 h post-injection): 0.14 (0.02)* percent injected dose per gram tissue
Biodistribution of radioactivity, Kidney ([3]; 10 min post-injection): 35.01 (2.83)* percent injected dose per gram tissue
Biodistribution of radioactivity, Kidney ([3]; 1 h post-injection): 15.30 (1.80) percent injected dose per gram tissue
Biodistribution of radioactivity, Kidney ([3]; 3 h post-injection): 4.89 (0.87)** percent injected dose per gram tissue
Biodistribution of radioactivity, Kidney ([3]; 24 h post-injection): 0.04 (0.01)* percent injected dose per gram tissue
Biodistribution of radioactivity, Liver ([3]; 10 min post-injection): 7.82 (0.32)* percent injected dose per gram tissue
Biodistribution of radioactivity, Liver ([3]; 1 h post-injection): 9.80 (0.94)** percent injected dose per gram tissue
Biodistribution of radioactivity, Liver ([3]; 3 h post-injection): 2.81 (0.33)* percent injected dose per gram tissue
Biodistribution of radioactivity, Liver ([3]; 24 h post-injection): 0.06 (0.03)* percent injected dose per gram tissue
Biodistribution of radioactivity, Lung ([3]; 10 min post-injection): 9.74 (1.59)* percent injected dose per gram tissue
Biodistribution of radioactivity, Lung ([3]; 1 h post-injection): 1.85 (0.18)* percent injected dose per gram tissue
Biodistribution of radioactivity, Lung ([3]; 3 h post-injection): 0.63 (0.11)* percent injected dose per gram tissue
Biodistribution of radioactivity, Lung ([3]; 24 h post-injection): 0.01 (0.02)* percent injected dose per gram tissue
Biodistribution of radioactivity, Muscle ([3]; 10 min post-injection): 2.20 (0.58) percent injected dose per gram tissue
Biodistribution of radioactivity, Muscle ([3]; 1 h post-injection): 0.45 (0.03)* percent injected dose per gram tissue
Biodistribution of radioactivity, Muscle ([3]; 3 h post-injection): 0.26 (0.10) percent injected dose per gram tissue
Biodistribution of radioactivity, Muscle ([3]; 24 h post-injection): 0.01 (0.01)* percent injected dose per gram tissue
Biodistribution of radioactivity, Pancreas ([3]; 10 min post-injection): 25.04 (2.40)* percent injected dose per gram tissue
Biodistribution of radioactivity, Pancreas ([3]; 1 h post-injection): 12.80 (0.97)* percent injected dose per gram tissue
Biodistribution of radioactivity, Pancreas ([3]; 3 h post-injection): 2.94 (0.49)* percent injected dose per gram tissue
Biodistribution of radioactivity, Pancreas ([3]; 24 h post-injection): 0.01 (0.01)* percent injected dose per gram tissue
Biodistribution of radioactivity, Spleen ([3]; 10 min post-injection): 8.11 (1.24) percent injected dose per gram tissue
Biodistribution of radioactivity, Spleen ([3]; 1 h post-injection): 1.84 (0.11)* percent injected dose per gram tissue
Biodistribution of radioactivity, Spleen ([3]; 3 h post-injection): 0.60 (0.12)* percent injected dose per gram tissue
Biodistribution of radioactivity, Spleen ([3]; 24 h post-injection): 0.01 (0.02)* percent injected dose per gram tissue
Biodistribution of radioactivity, Stomach ([3]; 10 min post-injection): 1.18 (0.36) percent injected dose
Biodistribution of radioactivity, Stomach ([3]; 1 h post-injection): 0.62 (0.18) percent injected dose
Biodistribution of radioactivity, Stomach ([3]; 3 h post-injection): 0.55 (0.25) percent injected dose
Biodistribution of radioactivity, Stomach ([3]; 24 h post-injection): 0.03 (0.02)* percent injected dose
Biodistribution of radioactivity, Tumor ([3]; 10 min post-injection): 9.55 (0.64)** percent injected dose per gram tissue
Biodistribution of radioactivity, Tumor ([3]; 1 h post-injection): 5.45 (0.70) percent injected dose per gram tissue
Biodistribution of radioactivity, Tumor ([3]; 3 h post-injection): 2.57 (0.41) percent injected dose per gram tissue
Biodistribution of radioactivity, Tumor ([3]; 24 h post-injection): 0.06 (0.04)** percent injected dose per gram tissue
percent of intact (+)-[^125I]IV-OH, Blood ([4]; 10 min post-injection): 17.0 (9.0) percent
percent of intact (+)-[^125I]IV-OH, Blood ([4]; 1 h post-injection): 0.9% and 0.9 (1.0) percent
percent of intact (+)-[^125I]IV-OH, Brain ([4]; 10 min post-injection): 96.4 (1.1) percent
percent of intact (+)-[^125I]IV-OH, Brain ([4]; 1 h post-injection): 73.7 (8.4) percent
percent of intact (+)-[^125I]IV-OH, Kidney ([4]; 10 min post-injection): 19.8 (3.7) percent
percent of intact (+)-[^125I]IV-OH, Kidney ([4]; 1 h post-injection): 2.6% and 2.6 (1.8) percent
percent of intact (+)-[^125I]IV-OH, Liver ([4]; 10 min post-injection): 5.4 (7.4) percent
percent of intact (+)-[^125I]IV-OH, Liver ([4]; 1 h post-injection): 0.1% and 0.1 (0.2) percent
percent of intact (+)-[^125I]IV-OH, Tumor ([4]; 10 min post-injection): 93.1 (4.3) percent
percent of intact (+)-[^125I]IV-OH, Tumor ([4]; 1 h post-injection): 70.2 (5.6) percent
